Among the data in PubChem BioAssay (NCI) are TGI and GI50 values, retold here.

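Five concentrations, 48 hours, 96-well plates. The concentration for 50% growth inhibition is given as GI50. TGI denotes the concentration required for complete inhibition of growth.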

Among the test systems are SF-268 CNS; NCI-H226 lung; UO-31 renal; MCF7 breast; SK-MEL-2 melanoma; SF-539 CNS; SN12C renal; HOP-62 NSCLC; EKVX NSCLC.
Holding throughout (experiment): inhibition of tumour cell growth, NCI panel, 48 h

Turning to `CO[C@H]1SC[C@H](OC(C)=O)[C@H](OC(C)=O)[C@H]1OC(C)=O`, the TGI in the experiment with SF-268 CNS, in the experiment on NCI-H226 lung, in the experiment with UO-31 renal, with MCF7 breast, with SK-MEL-2 melanoma and in the experiment on SF-539 CNS was over 100 µM in each case. Also, the TGI with SN12C renal, in the experiment on HOP-62 NSCLC and in the experiment on EKVX NSCLC was over 100 µM each time.

`C=C1N(C=O)C(C)(C)N(O)C1(C)C`: the TGI with SF-268 CNS, in the experiment with NCI-H226 lung, with UO-31 renal, in the experiment with MCF7 breast, in the experiment on SK-MEL-2 melanoma and with SF-539 CNS was over 100 µM throughout. Also, the TGI in the experiment on SN12C renal, in the experiment on HOP-62 NSCLC and in the experiment on EKVX NSCLC was over 100 µM throughout.

With `O=P(O)(O)c1ccccc1Oc1ccccc1`, the TGI in the experiment on SF-268 CNS, with NCI-H226 lung, in the experiment on UO-31 renal, in the experiment with MCF7 breast, in the experiment on SK-MEL-2 melanoma and in the experiment with SF-539 CNS was over 100 µM throughout. In addition, the TGI in the experiment with SN12C renal, with HOP-62 NSCLC and in the experiment on EKVX NSCLC was over 100 µM in each case.

Turning to `O=C(O)c1cccc2cccc(-c3cccc4cccc(C(=O)O)c34)c12`, the TGI in the experiment with SF-268 CNS, with NCI-H226 lung, with UO-31 renal, with MCF7 breast, with SK-MEL-2 melanoma and with SF-539 CNS was over 100 µM throughout. In addition, the TGI in the experiment on SN12C renal, in the experiment with HOP-62 NSCLC and in the experiment on EKVX NSCLC was over 100 µM each time.

Take `C=C(C)OCOCCOC`: the TGI with SF-268 CNS, in the experiment with NCI-H226 lung, with UO-31 renal, with MCF7 breast, in the experiment on SK-MEL-2 melanoma and in the experiment with SF-539 CNS was over 100 µM each time. The TGI in the experiment on SN12C renal, in the experiment on HOP-62 NSCLC and in the experiment on EKVX NSCLC was over 100 µM throughout.

Turning to `NC(=O)c1csc(C2(O)COC(CO)C2O)n1` (stereo unspecified), the TGI with SF-268 CNS, with NCI-H226 lung, in the experiment on UO-31 renal, in the experiment on MCF7 breast, with SK-MEL-2 melanoma and with SF-539 CNS was over 100 µM in each case. Further, the TGI in the experiment on SN12C renal, with HOP-62 NSCLC and in the experiment with EKVX NSCLC was over 100 µM each time.

`Cc1cc(C)c2c(=O)cc(-c3cccc(F)c3)[nH]c2n1`: the TGI in the experiment with SF-268 CNS is over 93.3 µM; in the experiment with NCI-H226 lung, 7.4 µM; in the experiment on UO-31 renal, over 100 µM; in the experiment on MCF7 breast it was 2.16 µM; in the experiment on SF-539 CNS it was 4.54 µM; in the experiment with SN12C renal it was 20.3 µM. Further, the TGI in the experiment on HOP-62 NSCLC was over 79.9 µM; with EKVX NSCLC, over 100 µM.

Consider `Cc1ccc(C(=O)N/N=C(\N=Nc2ccccc2)c2ccc(N(C)C)cc2)cc1`, for which the TGI in the experiment on SF-268 CNS, in the experiment with NCI-H226 lung, with UO-31 renal, in the experiment with MCF7 breast, in the experiment on SK-MEL-2 melanoma and with SF-539 CNS was over 100 µM each time. In addition, the TGI in the experiment with SN12C renal and in the experiment on EKVX NSCLC was over 100 µM in each case.

Turning to `COC(=O)C1CCc2sc3ncnc(Nc4cn[nH]c4C(=O)Nc4ccc(CN5CCN(C)CC5)cc4)c3c21` (stereo unspecified), the GI50 with SF-268 CNS is 0.666 µM; with NCI-H226 lung, 0.588 µM; in the experiment on UO-31 renal, 0.455 µM; in the experiment with SK-MEL-2 melanoma, 0.692 µM; in the experiment on SF-539 CNS, 0.371 µM; in the experiment with SN12C renal it was 0.345 µM. The figures for the GI50 with HOP-62 NSCLC and in the experiment on EKVX NSCLC were 0.453 µM and 0.838 µM, respectively. Moreover, the TGI in the experiment on SF-268 CNS was 2.63 µM; in the experiment on NCI-H226 lung it was over 100 µM; in the experiment on UO-31 renal it was 9.51 µM; in the experiment with SK-MEL-2 melanoma, 3.48 µM; with SF-539 CNS, 1.49 µM; in the experiment with SN12C renal, over 100 µM. Also, the TGI with HOP-62 NSCLC is 19.5 µM; in the experiment on EKVX NSCLC it was 14 µM.

Regarding `CC1(C)OCC2OC3([C@@H]4OC(C)(C)O[C@H]4CO)OC(C)(C)OC3C2O1` (stereo partly specified), the TGI in the experiment on NCI-H226 lung, in the experiment with UO-31 renal, in the experiment on MCF7 breast, in the experiment on SK-MEL-2 melanoma, in the experiment on SF-539 CNS and with SN12C renal was over 100 µM in each case. Moreover, the TGI in the experiment with HOP-62 NSCLC and in the experiment on EKVX NSCLC was over 100 µM in each case.

With `Cc1[nH]c(=O)nc(NCCNCCO)c1C(=O)Nc1cccc2cc3ccccc3cc12`, the TGI is over 100 µM with SF-268 CNS; over 100 µM in the experiment on NCI-H226 lung; over 44 µM in the experiment on MCF7 breast; over 100 µM in the experiment on SK-MEL-2 melanoma; over 100 µM in the experiment with SF-539 CNS; over 100 µM with SN12C renal. The TGI in the experiment with HOP-62 NSCLC and in the experiment on EKVX NSCLC was over 100 µM throughout.

For `COc1cc2cc(C(=O)N3C[C@H](CCl)c4c3cc(N)c3ccccc43)[nH]c2c(OC)c1OC`, the GI50 in the experiment with SF-268 CNS was 0.005 µM; in the experiment on MCF7 breast, 0.005 µM; in the experiment on SN12C renal, 0.00698 µM; with HOP-62 NSCLC, 0.005 µM. Also, the TGI in the experiment with SF-268 CNS turned out to be 1.74 µM; in the experiment with MCF7 breast, 13 µM; in the experiment with SF-539 CNS, 3.3 µM; with SN12C renal, 0.0582 µM; in the experiment on HOP-62 NSCLC, 0.112 µM; with EKVX NSCLC, 0.0462 µM.

In the case of `COc1cc(-c2n/c(=C\c3c(O)[nH]c4ccc(Cl)cc34)cc3c2=Nc2ccccc2-3)ccc1F`, the GI50 in the experiment on SF-268 CNS is 2.05 µM; in the experiment on NCI-H226 lung, 2.19 µM; with UO-31 renal it was 1.12 µM; with MCF7 breast, 1.25 µM; in the experiment on SF-539 CNS it was 2.79 µM; in the experiment with SN12C renal it was 1.78 µM. The values for the GI50 in the experiment with HOP-62 NSCLC and with EKVX NSCLC were 1.17 µM and 4.12 µM, respectively. Moreover, the TGI was found to be 4.65 µM in the experiment with SF-268 CNS; 8.15 µM with NCI-H226 lung; 2.5 µM with UO-31 renal; 3.26 µM in the experiment on MCF7 breast; 9.87 µM in the experiment on SF-539 CNS; 3.6 µM in the experiment with SN12C renal. In addition, the TGI in the experiment with HOP-62 NSCLC is 2.52 µM; with EKVX NSCLC, 27.2 µM.

Regarding `CC(C)C(=O)C(C)(C)CCc1ccccn1`, the TGI in the experiment on SF-268 CNS, with NCI-H226 lung, in the experiment with UO-31 renal, in the experiment on MCF7 breast, in the experiment on SK-MEL-2 melanoma and in the experiment on SN12C renal was over 100 µM throughout. The TGI in the experiment on HOP-62 NSCLC and in the experiment on EKVX NSCLC was over 100 µM in each case.
